Our source for the IC50 values is US20200392161A1, “SHP2 PHOSPHATASE INHIBITORS AND METHODS OF USE THEREOF” (Relay Therapeutics, Inc., priority 2018, published 2020).

By pIC50 is commonly meant −log10 of the IC50, conventionally taken in molar units. Higher therefore signals a small IC50.

pIC50: −log10 of the molar value. Counter-ions that a name gives are not always drawn.

The first assay has as its target T1, SHP2 (Homo sapiens, UniProt Q06124).
T1 sequence (Q06124 1-593): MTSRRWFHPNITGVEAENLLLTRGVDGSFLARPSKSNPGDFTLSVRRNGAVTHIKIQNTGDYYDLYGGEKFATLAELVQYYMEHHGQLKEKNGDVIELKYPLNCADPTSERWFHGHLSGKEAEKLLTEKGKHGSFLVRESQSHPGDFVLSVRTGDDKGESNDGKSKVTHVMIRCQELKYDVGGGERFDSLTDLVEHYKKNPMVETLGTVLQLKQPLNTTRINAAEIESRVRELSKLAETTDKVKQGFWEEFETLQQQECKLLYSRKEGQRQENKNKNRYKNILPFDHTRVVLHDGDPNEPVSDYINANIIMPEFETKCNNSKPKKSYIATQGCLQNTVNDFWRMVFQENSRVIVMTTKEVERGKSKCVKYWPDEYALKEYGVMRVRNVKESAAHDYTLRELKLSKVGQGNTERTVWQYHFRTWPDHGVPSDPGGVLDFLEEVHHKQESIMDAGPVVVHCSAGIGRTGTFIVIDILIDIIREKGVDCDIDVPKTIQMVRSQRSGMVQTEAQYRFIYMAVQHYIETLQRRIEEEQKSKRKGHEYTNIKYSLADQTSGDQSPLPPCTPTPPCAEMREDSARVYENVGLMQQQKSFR
Description: SHP2 allosteric inhibition assay (DiFMUP prompt fluorescence). The settings on record: Table 1; 0.25 nM SHP2, 0.5 μM IRS1_pY1172(dPEG8)pY1222 peptide, DiFMUP 100 μM. It counts as biochemical. An excerpt:
SHP2 Allosteric Inhibition Assay.
SHP2 is allosterically activated through binding of bis-tyrosyl-phosphorylated peptides to its Src Homology 2 (SH2) domains. The latter activation step leads to the release of the auto-inhibitory interface of SHP2, which in turn renders the SHP2 protein tyrosine phosphatase (PTP) active and available for substrate recognition and reaction catalysis. The catalytic activity of SHP2 was monitored using the surrogate substrate DiFMUP in a prompt fluorescence assay format.
The inhibitor dose response curves were analyzed using normalized IC50 regression curve fitting with control based normalization.
In turn, `CC1(CN)CCN(c2nn3c(N)c(-c4cccc(Cl)c4Cl)nc3s2)CC1` [Compound A9, 2-(4-(aminomethyl)-4-methylpiperidin-1-yl)-6-(2,3-dichlorophenyl)imidazo[2,1-b][1,3,4]thiadiazol-5-amine formate] showed a pIC50 of 4.70 to 5.30.
On the same count and under the same terms, as for `CC1(N)CCCN(c2nn3c(N)c(-c4cccc(Cl)c4Cl)nc3s2)C1` (stereo not shown) [Compound A1, 2-(3-amino-3-methylpiperidin-1-yl)-6-(2,3-dichlorophenyl)imidazo[2,1-b][1,3,4]thiadiazol-5-amine formate], the figure is above 5.30; as for `Cc1c(-c2ccccc2Cl)nc2sc(N3CCC(C)(CN)CC3)nn12` [Compound A7, (1-(6-(2-chlorophenyl)-5-methylimidazo[2,1-b][1,3,4]thiadiazol-2-yl)-4-methylpiperidin-4-yl)methanamine formate], above 5.30.
`Cc1c(-c2ccccc2Cl)nc2sc(N3CCC(C)(N)C3)nn12` (stereo not shown) [Compound A11, 1-(6-(2-chlorophenyl)-5-methylimidazo[2,1-b][1,3,4]thiadiazol-2-yl)-3-methylpyrrolidin-3-amine formate] showed a pIC50 above 5.30.

Still in this assay, the particulars now being: Table 2; 0.25 nM SHP2, 0.5 μM IRS1_pY1172(dPEG8)pY1222 peptide, DiFMUP 100 μM.
As to `Cc1nc(N2CCC(C)(CN)C2)sc1-c1ccccc1Cl` (stereo not shown) [Compound B4, ((1-(5-(2-chlorophenyl)-4-methylthiazol-2-yl)-3-methylpyrrolidin-3-yl)methanamine formate], the pIC50 is below 4.00.

Staying with this assay, now noted: Table 3; 0.25 nM SHP2, 0.5 μM IRS1_pY1172(dPEG8)pY1222 peptide, DiFMUP 100 μM.
In turn, `O=C(O)Cc1csc(-c2cccc(Cl)c2Cl)n1` [Compound C41] had a pIC50 below 3.00.
`COCCn1cnnc1SCc1csc(-c2ccc(OC)c(OC)c2)n1` [Compound C15] gave a pIC50 above 3.30.
`Cc1ccc(-c2nc(C)c(C(=O)N3CCC(CN)C3)s2)c(C)c1` (stereo not shown) [Compound C47] had a pIC50 below 3.00.
In turn, `CC1(N)CCN(C(=O)c2csc(-c3ccccc3Cl)n2)CC1` [Compound C1, (4-amino-4-methylpiperidin-1-yl)(2-(2-chlorophenyl)thiazol-4-yl)methanone formate] had a pIC50 above 3.30.
In turn, `c1nnc(SCc2csc(-c3ccc4c(c3)OCO4)n2)s1` [Compound C13] gave a pIC50 above 3.30.
Molecule `COc1cc(-c2nc(CSc3nnc(-c4ccc(C)cc4C)o3)cs2)ccc1O` [Compound C34] gave a pIC50 below 3.00.
On the same count and under the same terms, to `NCC1CCN(C(=O)c2csc(-c3ccccc3F)n2)C1` (stereo not shown) [Compound C49] belongs below 3.00; to `COc1ccc(-c2nc(CSc3nc4nc(C)cc(C)n4n3)cs2)cc1OC` [Compound C32], below 3.00; to `COc1ccc(-c2nc(CSc3nnnn3C3CC3)cs2)cc1OC` [Compound C25], below 3.00.
In turn, `c1coc(-c2nc(CSc3nncs3)cs2)c1` [Compound C8] gave a pIC50 of 3.00 to 3.30.
Regarding `COc1ccc(-c2nc(CSc3nnc(-c4ccco4)o3)cs2)cc1OC` [Compound C30], the pIC50 was below 3.00.
Same read-out and setting: to `COc1cc(-c2nc(CN3CCOCC3C)cs2)ccc1O` (stereo not shown) [Compound C22] belongs below 3.00; to `CCC(=O)N(c1nnc(SCc2csc(-c3ccc(OC)c(OC)c3)n2)s1)C1CC1` [Compound C31], below 3.00.
`c1cc(-c2nc(CSc3nncs3)cs2)co1` [Compound C24] showed a pIC50 below 3.00.
Regarding `COc1ccc(-c2nc(CSc3nnnn3C)cs2)cc1OC` [Compound C6], the pIC50 was 3.00 to 3.30.
`CCOc1ccc(-c2nc(CSc3nnc(C)s3)cs2)cc1OC` [Compound C36]: the pIC50 was below 3.00.
Still for that read-out and setting: to `COc1cccc(Nc2nnc(SCc3csc(-c4ccc(OC)c(OC)c4)n3)s2)c1` [Compound C39] belongs below 3.00; to `COc1cc(-c2nc(CSc3nnc(-c4ccccc4C)n3C)cs2)ccc1O` [Compound C18], 3.00 to 3.30.

The assay is the same for the next values; noted with them: Table 4; 0.25 nM SHP2, 0.5 μM IRS1_pY1172(dPEG8)pY1222 peptide, DiFMUP 100 μM.
In turn, `CC1(CN)CCN(c2ncnc3c(-c4cccc(Cl)c4Cl)csc23)CC1` [Compound D2, (1-(7-(2,3-dichlorophenyl)thieno[3,2-d]pyrimidin-4-yl)-4-methylpiperidin-4-yl)methanamine] showed a pIC50 of 5.00 to 6.00.

The assay is the same for the next values; noted with them: Table 5; 0.25 nM SHP2, 0.5 μM IRS1_pY1172(dPEG8)pY1222 peptide, DiFMUP 100 μM.
In turn, `CC1(CN)CCN(c2cnn3c(-c4ccccc4Cl)coc23)C1` (stereo not shown) [Compound E2, (1-(3-(2-chlorophenyl)pyrazolo[5,1-b]oxazol-7-yl)-3-methylpyrrolidin-3-yl)methanamine] showed a pIC50 above 4.30.

The same assay, now with this note: Table 6; 0.25 nM SHP2, 0.5 μM IRS1_pY1172(dPEG8)pY1222 peptide, DiFMUP 100 μM.
Molecule `Cn1c(N2CCC(C)(CN)CC2)nc2[nH]nc(N3CCCc4ncccc43)c2c1=O` [Compound F1, 6-(4-(aminomethyl)-4-methylpiperidin-1-yl)-3-(3,4-dihydro-1,5-naphthyridin-1(2H)-yl)-5-methyl-1H-pyrazolo[3,4-d]pyrimidin-4(5H)-one, hydrochloride] showed a pIC50 above 6.00.
For `COc1nc(N2CCC(C)(N)CC2)nc2[nH]nc(-c3cccc(Cl)c3Cl)c12` [Compound F9, 1-[3-(2,3-dichlorophenyl)-4-methoxy-1H-pyrazolo[3,4-d]pyrimidin-6-yl]-4-methyl-piperidin-4-amine], the pIC50 was above 6.00.
On to `Cn1c(N2CCC(C)(CN)CC2)nc2[nH]nc(Sc3cccc(Cl)c3Cl)c2c1=O` [Compound F7, 6-(4-(aminomethyl)-4-methylpiperidin-1-yl)-3-((2,3-dichlorophenyl)thio)-5-methyl-1H-pyrazolo[3,4-d]pyrimidin-4(5H)-one hydrochloride], for which the negative-log IC50 (pIC50) was above 6.00.
For the molecule `CC1(N)CCN(c2cc(=O)n3c(-c4cccc(Cl)c4F)n[nH]c3n2)CC1` [Compound F3, 7-(4-amino-4-methylpiperidin-1-yl)-3-(3-chloro-2-fluorophenyl)-[1,2,4]triazolo[4,3-a]pyrimidin-5(1H)-one hydrochloride], the pIC50 was below 4.70.
Still for that read-out and setting: as for `Cn1c(N2CCC(C)(CN)CC2)nc2[nH]nc(N3CCc4ccccc43)c2c1=O` [Compound F4, 6-(4-(aminomethyl)-4-methylpiperidin-1-yl)-3-(indolin-1-yl)-5-methyl-1H-pyrazolo[3,4-d]pyrimidin-4(5H)-one], the figure is above 6.00; as for `O=c1c2[nH]nc(-c3cccc(Cl)c3Cl)c2ncn1C1CCNCC1` [Compound F5, 3-(2,3-dichlorophenyl)-6-(piperidin-4-yl)-1H-pyrazolo[4,3-d]pyrimidin-7(6H)-one], 4.70 to 6.00.
